Laboratory results published in the supplement of paper PMC11061612.

Legend:
AZD1775 = compound: C=CCn1c(=O)c2cnc(Nc3ccc(N4CCN(C)CC4)cc3)nc2n1-c1cccc(C(C)(C)O)n1 [AZD1775]
In short: (§1)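 Viability was measured with CellTiter-Glo 2.0 luminescence after 72 hours of dosing at a final DMSO of typically 0.2%, and scaled between blank-well and DMSO-well means. Beforehand, cancer cell lines sat 24 hours at 37°C and 5% CO2 in 1536-well plates in 7.5 μl DMEM/F12 or RPMI with 10% FBS. A non-linear mixed effects model fitted two-parameter logistic curves to the dose responses. The single-agent IC50 comes from these fits.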

Selumetinib = compound: Cn1cnc2c(F)c(Nc3ccc(Br)cc3Cl)c(C(=O)NOCCO)cc21 [Selumetinib]
In short: as §1

AZD8186 = compound: C[C@@H](Nc1cc(F)cc(F)c1)c1cc(C(=O)N(C)C)cc2c(=O)cc(N3CCOCC3)oc12 [AZD8186]; conditions: max 3 µM
In short: as §1

AZD6738 = compound: C[C@@H]1COCCN1C2=NC(=NC(=C2)C3(CC3)[S@](=N)(=O)C)C4=C5C=CNC5=NC=C4 [AZD6738]; conditions: max 10 µM
In short: as §1

AZD0156 = compound: CN(C)CCCOc1ccc(-c2ccc3ncc4c(c3c2)n(C2CCOCC2)c(=O)n4C)cn1 [AZD0156]
In short: as §1

AZD7648 = compound: Cc1cc2ncnn2cc1Nc1ncc2c(n1)n(C1CCOCC1)c(=O)n2C [AZD7648]; conditions: max 10 µM
In short: as §1

SN-38 = compound: CCc1c2c(nc3ccc(O)cc13)-c1cc3c(c(=O)n1C2)COC(=O)[C@]3(O)CC [SN-38]; conditions: max 0.3 µM
In short: as §1

Venetoclax = compound: CC1(C)CCC(CN2CCN(c3ccc(C(=O)NS(=O)(=O)c4ccc(NCC5CCOCC5)c([N+](=O)[O-])c4)c(Oc4cnc5[nH]ccc5c4)c3)CC2)=C(c2ccc(Cl)cc2)C1 [Venetoclax]; conditions: max 1 µM
In short: as §1

SG3199 = compound: CC1=CN2[C@@H](C1)C=NC3=CC(=C(C=C3C2=O)OC)OCCCCCOC4=C(C=C5C(=C4)N=C[C@@H]6CC(=CN6C5=O)C)OC [SG3199]; conditions: max 0.001 µM
In short: as §1

Capivasertib = compound: C1CN(CCC1(C(=O)N[C@@H](CCO)C2=CC=C(C=C2)Cl)N)C3=NC=NC4=C3C=CN4 [Capivasertib]
In short: as §1

Dasatinib = compound: CC1=C(C(=CC=C1)Cl)NC(=O)C2=CN=C(S2)NC3=CC(=NC(=N3)C)N4CCN(CC4)CCO [Dasatinib]; conditions: max 2 µM
In short: as §1

AZD5153 = compound: COc1nnc2ccc(N3CCC(c4ccc(OCCN5CCN(C)C(=O)[C@H]5C)cc4)CC3)nn12 [AZD5153]; conditions: max 1 µM
In short: as §1

Doxorubicin = compound: COc1cccc2c1C(=O)c1c(O)c3c(c(O)c1C2=O)C[C@@](O)(C(=O)CO)C[C@@H]3O[C@H]1C[C@H](N)[C@H](O)[C@H](C)O1 [Doxorubicin]; conditions: max 1 µM
In short: as §1

AZD5991 = compound: Cc1c2c(nn1C)CSCc1cc(n(C)n1)CSc1cc(c3ccccc3c1)OCCCc1c(C(=O)O)n(C)c3c-2c(Cl)ccc13 [AZD5991]; conditions: max 1 µM
In short: as §1

Trametinib = compound: CC(=O)Nc1cccc(-n2c(=O)n(C3CC3)c(=O)c3c(Nc4ccc(I)cc4F)n(C)c(=O)c(C)c32)c1 [Trametinib]; conditions: max 1 µM
In short: as §1

Gefitinib = compound: COc1cc2ncnc(Nc3ccc(F)c(Cl)c3)c2cc1OCCCN1CCOCC1 [Gefitinib]; conditions: max 10 µM
In short: as §1

Alisertib = compound: COc1cc(Nc2ncc3c(n2)-c2ccc(Cl)cc2C(c2c(F)cccc2OC)=NC3)ccc1C(=O)O [Alisertib]; conditions: max 10 µM
In short: as §1

Palbociclib = compound: CC(=O)c1c(C)c2cnc(Nc3ccc(N4CCNCC4)cn3)nc2n(C2CCCC2)c1=O [Palbociclib]; conditions: max 10 µM
In short: as §1

AZD4320 = compound: CN(CC[C@H](CSC1=CC=CC=C1)NC2=C(C=C(C=C2)S(=O)(=O)NC(=O)C3=CC=C(C=C3)N4CCC(CC4)[C@H](C5=CC=CC=C5C6=CC=C(C=C6)Cl)O)S(=O)(=O)C(F)(F)F)CCO [AZD4320]; conditions: max 1 µM
In short: as §1

AZD2811 = compound: CCN(CCO)CCCOc1ccc2c(Nc3cc(CC(=O)Nc4cccc(F)c4)[nH]n3)ncnc2c1 [AZD2811]; conditions: max 1 µM
In short: as §1

Savolitinib = compound: C[C@@H](c1ccc2nccn2c1)n1nnc2ncc(-c3cnn(C)c3)nc21 [Savolitinib]; conditions: max 1 µM
In short: as §1

Prexasertib = compound: COc1cccc(OCCCN)c1-c1cc(Nc2cnc(C#N)cn2)n[nH]1 [Prexasertib]; conditions: max 1 µM
In short: as §1

Olaparib = compound: O=C(c1cc(Cc2n[nH]c(=O)c3ccccc23)ccc1F)N1CCN(C(=O)C2CC2)CC1 [Olaparib]; conditions: max 10 µM
In short: as §1

Taselisib = compound: Cc1nc(-c2cn3c(n2)-c2ccc(-c4cnn(C(C)(C)C(N)=O)c4)cc2OCC3)n(C(C)C)n1 [Taselisib]; conditions: max 10 µM
In short: as §1

Lapatinib = compound: CS(=O)(=O)CCNCc1ccc(-c2ccc3ncnc(Nc4ccc(OCc5cccc(F)c5)c(Cl)c4)c3c2)o1 [Lapatinib]; conditions: max 10 µM
In short: as §1

AZD1390 = compound: CC(C)n1c(=O)n(C)c2cnc3cc(F)c(-c4ccc(OCCCN5CCCCC5)nc4)cc3c21 [AZD1390]; conditions: max 0.3 µM
In short: as §1

Crizotinib = compound: C[C@@H](Oc1cc(-c2cnn(C3CCNCC3)c2)cnc1N)c1c(Cl)ccc(F)c1Cl [Crizotinib]; conditions: max 10 µM
In short: as §1

Row | Cell Line | IC50, cell viability 72 h (AZD1775; max 3 µM) | IC50, cell viability 72 h (Selumetinib; max 10 µM) | IC50, cell viability 72 h (AZD8186) | IC50, cell viability 72 h (AZD6738) | IC50, cell viability 72 h (AZD0156; max 3 µM) | IC50, cell viability 72 h (AZD7648) | IC50, cell viability 72 h (SN-38) | IC50, cell viability 72 h (Venetoclax) | IC50, cell viability 72 h (SG3199) | IC50, cell viability 72 h (Capivasertib; max 10 µM) | IC50, cell viability 72 h (Dasatinib) | IC50, cell viability 72 h (AZD5153) | IC50, cell viability 72 h (Doxorubicin) | IC50, cell viability 72 h (AZD5991) | IC50, cell viability 72 h (Trametinib) | IC50, cell viability 72 h (Gefitinib) | IC50, cell viability 72 h (Alisertib) | IC50, cell viability 72 h (Palbociclib) | IC50, cell viability 72 h (AZD4320) | IC50, cell viability 72 h (AZD2811) | IC50, cell viability 72 h (Savolitinib) | IC50, cell viability 72 h (Prexasertib) | IC50, cell viability 72 h (Olaparib) | IC50, cell viability 72 h (Taselisib) | IC50, cell viability 72 h (Lapatinib) | IC50, cell viability 72 h (AZD1390) | IC50, cell viability 72 h (Crizotinib) | IC50, cell viability 72 h (AZD1775; max 1 µM) | IC50, cell viability 72 h (Selumetinib; max 3 µM) | IC50, cell viability 72 h (AZD0156; max 1 µM) | IC50, cell viability 72 h (Capivasertib; max 3 µM)
1 | EPLC-272H (Other Solid Carcinomas) | 454 nM | 2280 nM | > 3000 nM | 1000 nM | > 3000 nM | > 10000 nM | 126 nM | > 1000 nM | > 1 nM | 1800 nM | 148 nM | 116 nM | > 1000 nM | 391 nM | 22.7 nM | 5460 nM | > 10000 nM | > 10000 nM | > 1000 nM | > 1000 nM | > 1000 nM | 8.51 nM | > 10000 nM | 256 nM | 5770 nM | > 300 nM | > 10000 nM |  |  |  | 
2 | ESO26 (Esophageal Adenocarcinoma) | 1470 nM | > 10000 nM | > 3000 nM | > 10000 nM | > 3000 nM | > 10000 nM | 223 nM | > 1000 nM | > 1 nM | 8590 nM | > 2000 nM | 398 nM | > 1000 nM | > 1000 nM | > 1000 nM | 4700 nM | > 10000 nM | > 10000 nM | > 1000 nM | > 1000 nM | > 1000 nM | 380 nM | > 10000 nM | 1840 nM | 814 nM | > 300 nM | > 10000 nM |  |  |  | 
3 | EW-16 (Ewing's Sarcoma) | 581 nM | > 10000 nM | > 3000 nM | > 10000 nM | > 3000 nM | > 10000 nM | 3.19 nM | > 1000 nM | > 1 nM | > 10000 nM | > 2000 nM | > 1000 nM | 71.9 nM | > 1000 nM | > 1000 nM | > 10000 nM | 2280 nM | > 10000 nM | > 1000 nM | 837 nM | > 1000 nM | 726 nM | > 10000 nM | 5720 nM | > 10000 nM | > 300 nM | > 10000 nM |  |  |  | 
4 | G-402 (Other Solid Carcinomas) | 2700 nM | > 10000 nM | > 3000 nM | 7010 nM | > 3000 nM | > 10000 nM | 27 nM | > 1000 nM | > 1 nM | 8690 nM | 319 nM | 98.5 nM | 123 nM | 251 nM | 563 nM | > 10000 nM | 1970 nM | > 10000 nM | > 1000 nM | 475 nM | > 1000 nM | 523 nM | > 10000 nM | 2420 nM | > 10000 nM | > 300 nM | 7960 nM |  |  |  | 
5 | GA-10 (Burkitt's Lymphoma) | 503 nM | > 10000 nM | 978 nM | 631 nM | > 3000 nM | > 10000 nM | 23.4 nM | > 1000 nM | > 1 nM | 1480 nM | 166 nM | 83.3 nM | 369 nM | 252 nM | > 1000 nM | > 10000 nM | 147 nM | 234 nM | > 1000 nM | 108 nM | > 1000 nM | 9.18 nM | > 10000 nM | 845 nM | > 10000 nM | > 300 nM | 2340 nM |  |  |  | 
6 | GCT (Other Solid Carcinomas) | > 3000 nM | > 10000 nM | > 3000 nM | > 10000 nM | > 3000 nM | > 10000 nM | 43.5 nM | > 1000 nM | > 1 nM | 6420 nM | 703 nM | 603 nM | > 1000 nM | > 1000 nM | 846 nM | > 10000 nM | > 10000 nM | > 10000 nM | > 1000 nM | > 1000 nM | > 1000 nM | > 1000 nM | > 10000 nM | 8270 nM | > 10000 nM | > 300 nM | > 10000 nM |  |  |  | 
7 | HT55 (Colorectal Carcinoma) | 659 nM | 1150 nM | > 3000 nM | > 10000 nM | > 3000 nM | > 10000 nM | > 300 nM | > 1000 nM | > 1 nM | > 10000 nM | > 2000 nM | 646 nM | > 1000 nM | > 1000 nM | 30.1 nM | > 10000 nM | > 10000 nM | 9650 nM | > 1000 nM | > 1000 nM | > 1000 nM | 268 nM | > 10000 nM | 753 nM | 1750 nM | > 300 nM | > 10000 nM |  |  |  | 
8 | TE-10 (Esophageal Squamous Cell Carcinoma) |  |  | > 3000 nM | 1600 nM |  | > 10000 nM | 37.1 nM | > 1000 nM | > 1 nM |  |  |  | 820 nM | 290 nM | 825 nM |  | 2930 nM |  | > 1000 nM | > 1000 nM |  | 11.9 nM | > 10000 nM | 941 nM |  |  |  | 381 nM | > 3000 nM | > 1000 nM | > 3000 nM
